Measured values published in PubChem BioAssay (NCI).
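A five-concentration, 48-hour dose response in 96-well plates underlies each endpoint, interpolated linearly between surrounding concentrations. At the GI50, growth is halved. The concentration for full growth arrest is given as TGI.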

What was measured:
Experiment in all cases: NCI tumour cell line growth inhibition, 48 h
[1] = test system: KM12 colon
[2] = test system: SK-MEL-5 melanoma
[3] = test system: ACHN renal
[4] = test system: HCC-2998 colon
[5] = test system: NCI-H226 lung
[6] = test system: RPMI-8226 leukemia
[7] = test system: NCI-H23 lung
[8] = test system: SK-MEL-2 melanoma
[9] = test system: DU-145 prostate
[10] = test system: OVCAR-4 ovarian
[11] = test system: NCI-H460 lung
[12] = test system: NCI/ADR-RES ovarian
[13] = test system: HOP-92 NSCLC
[14] = test system: COLO 205 colon
[15] = test system: MDA-MB-435
[16] = test system: UO-31 renal
[17] = test system: MALME-3M melanoma
[18] = test system: SW-620 colon
[19] = test system: SF-539 CNS
[20] = test system: A498 renal
[21] = test system: TK-10 renal
[22] = test system: SK-MEL-28 melanoma
[23] = test system: UACC-257 melanoma
[24] = test system: EKVX NSCLC
[25] = test system: CAKI-1 renal
[26] = test system: HCT-15 colon
[27] = test system: OVCAR-5 ovarian
[28] = test system: PC-3 prostate
[29] = test system: UACC-62 melanoma
[30] = test system: SNB-75 CNS
[31] = test system: OVCAR-3 ovarian
[32] = test system: MDA-MB-231 breast
[33] = test system: RXF 393 renal
[34] = test system: SN12C renal
[35] = test system: SF-295 CNS

O=C(CCN1CCCC1)Nc1ccc2c(NCCCCc3ccccc3)c3ccccc3nc2c1
GI50 [1]: 1330 nM | TGI [1]: 2740 nM | GI50 [2]: 1560 nM | TGI [2]: 2910 nM | GI50 [3]: 1320 nM | TGI [3]: 2590 nM | GI50 [4]: 815 nM | TGI [4]: 2140 nM | GI50 [5]: 1150 nM | TGI [5]: 2490 nM | GI50 [6]: 258 nM | TGI [6]: 837 nM | GI50 [7]: 1100 nM | TGI [7]: 2400 nM | GI50 [8]: 1760 nM | TGI [8]: 3.34 µM | GI50 [9]: 1150 nM | TGI [9]: 2390 nM | GI50 [10]: 1120 nM | TGI [10]: 2520 nM | GI50 [11]: 530 nM | TGI [11]: 1760 nM | GI50 [12]: 11.3 µM | TGI [12]: 59.4 µM | GI50 [13]: 1060 nM | TGI [13]: 2320 nM | GI50 [14]: 453 nM | TGI [14]: 1870 nM | GI50 [15]: 1560 nM | TGI [15]: 2950 nM | GI50 [16]: 1550 nM | TGI [16]: 2920 nM | GI50 [17]: 1720 nM | TGI [17]: 3.26 µM | GI50 [18]: 534 nM | TGI [18]: 1860 nM | GI50 [19]: 1440 nM | TGI [19]: 2840 nM | GI50 [20]: 1430 nM | TGI [20]: 2820 nM | GI50 [21]: 1400 nM | TGI [21]: 2860 nM | GI50 [22]: 1800 nM | TGI [22]: 3.24 µM | GI50 [23]: 1800 nM | TGI [23]: 3.5 µM | GI50 [24]: 1390 nM | TGI [24]: 2730 nM | GI50 [25]: 9.49 µM | TGI [25]: 22.3 µM | GI50 [26]: 1620 nM | TGI [26]: 3.1 µM | GI50 [27]: 1380 nM | TGI [27]: 2710 nM | GI50 [28]: 723 nM | TGI [28]: 2090 nM | GI50 [29]: 1670 nM | TGI [29]: 3.12 µM | GI50 [30]: 1330 nM | TGI [30]: 2650 nM | GI50 [31]: 1250 nM | TGI [31]: 2570 nM | GI50 [32]: 1150 nM | TGI [32]: 2430 nM | GI50 [33]: 802 nM | TGI [33]: 2180 nM | GI50 [34]: 1080 nM | TGI [34]: 2390 nM | GI50 [35]: 1500 nM | TGI [35]: 2880 nM
